Measurements as given in article PMC6328288 (Journal of Medicinal Chemistry, 2018).
Values belong to the compound of their own block, whether it stands above or below them.

Legend:
human CCR1 [1] = target: T1, human CCR1 (Homo sapiens, UniProt P32246); experiment: [3H]-CCR2-RA-[R] displacement binding assay on U2OS-CCR1 membranes; conditions: for displacement of [3H]-CCR2-RA-[R] from CCR1 (in words): concentration-dependent
T1 sequence (P32246 1-355): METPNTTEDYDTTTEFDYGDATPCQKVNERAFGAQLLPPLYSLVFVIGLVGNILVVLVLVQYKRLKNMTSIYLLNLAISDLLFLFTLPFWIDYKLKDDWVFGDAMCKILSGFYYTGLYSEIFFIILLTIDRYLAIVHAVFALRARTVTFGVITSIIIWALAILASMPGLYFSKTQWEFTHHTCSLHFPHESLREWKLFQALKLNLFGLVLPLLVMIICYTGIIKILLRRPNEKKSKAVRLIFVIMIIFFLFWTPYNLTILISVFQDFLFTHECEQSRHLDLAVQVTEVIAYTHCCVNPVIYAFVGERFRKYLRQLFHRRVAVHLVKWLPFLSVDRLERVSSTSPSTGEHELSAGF

human CCR2 [2] = target: T2, human CCR2 (Homo sapiens, UniProt P41597); experiment: [3H]-CCR2-RA-[R] displacement binding assay on U2OS-CCR2 membranes; conditions: for displacement at 1 μM (%) / pKi ± SEM: CCR2; for displacement at 1 μM (%): [3H]-CCR2-RA-[R] displacement by 1 μM compound, mean of two experiments; for pKi ± SEM: [3H]-CCR2-RA-[R] binding, U2OS membranes, 25 °C
T2 sequence (P41597 1-360 isoform P41597-2): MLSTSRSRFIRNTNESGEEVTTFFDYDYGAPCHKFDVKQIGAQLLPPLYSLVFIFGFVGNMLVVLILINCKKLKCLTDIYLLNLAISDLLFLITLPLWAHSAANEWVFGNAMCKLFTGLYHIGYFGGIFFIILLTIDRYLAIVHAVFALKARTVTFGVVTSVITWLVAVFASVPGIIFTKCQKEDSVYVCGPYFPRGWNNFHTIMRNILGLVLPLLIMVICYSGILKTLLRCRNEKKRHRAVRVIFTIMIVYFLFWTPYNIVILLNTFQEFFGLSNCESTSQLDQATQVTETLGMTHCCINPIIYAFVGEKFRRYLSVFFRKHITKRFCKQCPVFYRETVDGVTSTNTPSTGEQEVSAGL

human CCR1 [3] = target: T1, human CCR1; experiment: [35S]GTPγS binding assay on U2OS-CCR1 membranes; format: biochemical; conditions: for Hill slope, CCR1: CCL3-induced, 8 nM CCL3
human CCR2 [4] = target: T2, human CCR2; experiment: [35S]GTPγS binding assay on U2OS-CCR2 membranes; format: biochemical; conditions: for Hill slope, CCR2: CCL2-induced, 20 nM CCL2
human CCR1 [5] = target: T1, human CCR1; experiment: Inhibition of basal [35S]GTPγS binding in absence of CCL3 in U2OS-CCR1; format: biochemical; conditions: for fold higher potency as inverse agonist than as antagonist: CCR1, absence versus presence of CCL3; for fold difference between functional and binding assays: CCR1, [35S]GTPγS potency (absence or presence of CCL3) versus binding affinity
[6] = CCR1, [3H]-CCR2-RA-[R] binding, U2OS membranes, 25 °C

- displacement at 1 μM (%) (human CCR2 [2]): 5% (5, 5)
Compound: COc1ccc(C2C(C(C)=O)=C(O)C(=O)N2c2ccc(C)cc2)cc1 (stereo not shown) [Compound 11, 4-Acetyl-3-hydroxy-5-(4-methoxyphenyl)-1-(4-methylphenyl)-1,5-dihydro-2H-pyrrol-2-one]

- displacement at 1 μM (%) (human CCR2 [2]): 0% (3, −3)
Compound: COc1cccc(C2C(C(C)=O)=C(O)C(=O)N2c2ccc(C)cc2)c1 (stereo not shown) [Compound 15, 4-Acetyl-3-hydroxy-5-(3-methoxyphenyl)-1-(4-methylphenyl)-1,5-dihydro-2H-pyrrol-2-one]

- selectivity for CCR1 over CCR2 (human CCR1 [1]; from binding affinities): 8 fold
Compound: Cc1ccc(N2C(=O)C(O)=C(C(=O)C3CC3)C2C2CCCCC2)cc1 (stereo not shown) [Compound 22, 5-Cyclohexyl-4-(cyclopropanecarbonyl)-3-hydroxy-1-(4-methylphenyl)-1,5-dihydro-2H-pyrrol-2-one]

- Ki (human CCR2 [2]): ~20 nM
Compound: CC(=O)C1=C(O)C(=O)N(c2ccc(Br)cc2)C1C1CCCCC1 (stereo not shown) [Compound 31, 4-Acetyl-1-(4-bromophenyl)-5-cyclohexyl-3-hydroxy-1,5-dihydro-2H-pyrrol-2-one]

- Hill slope, CCR1 (human CCR1 [3]): –0.62 ± 0.05
- Hill slope, CCR2 (human CCR2 [4]): –0.94 ± 0.18
- fold higher potency as inverse agonist than as antagonist (human CCR1 [5]): 3 fold
Compound: CC(=O)C1=C(O)C(=O)N(c2ccc(Br)cc2F)C1C1CCCCC1 (stereo not shown) [Compound 39, 4-Acetyl-1-(4-bromo-2-fluorophenyl)-5-cyclohexyl-3-hydroxy-1,5-dihydro-2H-pyrrol-2-one]

- Hill slope, CCR1 (human CCR1 [3]): –0.73 ± 0.02
- Hill slope, CCR2 (human CCR2 [4]): –0.80 ± 0.13
- fold difference between functional and binding assays (human CCR1 [5]): more than 130 fold
- pKi ± SEM (human CCR2 [2]): 7.82 ± 0.04
Compound: O=C(C1=C(O)C(=O)N(c2ccc(Br)cc2F)C1C1CCCCC1)C1CC1 (stereo not shown) [Compound 43, 1-(4-Bromo-2-fluorophenyl)-5-cyclohexyl-4-(cyclopropanecarbonyl)-3-hydroxy-1,5-dihydro-2H-pyrrol-2-one]

- pKi ± SEM (human CCR1 [1]; [6]): 7.56 ± 0.04
Compound: O=C(C1=C(O)C(=O)N(c2ccc(Br)cc2F)C1C1CCCCC1)c1ccccc1 (stereo not shown) [Compound 44, 4-Benzoyl-1-(4-bromo-2-fluorophenyl)-5-cyclohexyl-3-hydroxy-1,5-dihydro-2H-pyrrol-2-one]

- Ki (human CCR1 [1]; [6]): 138 nM
- pKi ± SEM (human CCR1 [1]; [6]): 6.9 ± 0.06
- displacement of [3H]-CCR2-RA-[R] from CCR1 (in words) (human CCR1 [1]; U2OS-CCR1): fully displaced
Compound: COC(=O)c1c(-c2ccno2)[nH]c(=S)n1CCCc1ccc(F)c(F)c1 [JNJ-27141491, (S)-3-[3,4-difluorophenyl)-propyl]-5-isoxazol-5-yl-2-thioxo-2,3-dihydro-1H-imidazole-4-carboxyl acid methyl ester]

- pEC50, stimulation of [35S]GTPγS binding (human CCR2 [4]; U2OS-CCR2): 8.3 ± 0.09
- EC50 (human CCR2 [4]; read-out: potency, stimulation of [35S]GTPγS binding, U2OS-CCR2): 5 nM
Compound: CCL2: chemokine ligand activating CCR2, purchased from PeproTech

Continued, compound first:

Compound: C[C@@H]1CN(Cc2ccc(F)cc2)CCN1C(=O)COc1ccc(Cl)cc1NC(N)=O [BX471]
- [3H]-CCR2-RA-[R] specific binding in presence of compound (absence = 100%) (human CCR1 [1]; 10 μM BX471, 6 nM radioligand, U2OS-CCR1): 116 ± 2%
- [3H]-CCR2-RA-[R] binding enhanced up to (human CCR1 [1]; U2OS-CCR1, increasing concentrations): up to 120%
- displacement of [3H]-CCR2-RA-[R] from CCR1 (in words) (human CCR1 [1]; U2OS-CCR1): not able to displace

Compound: CC(=O)C1=C(O)C(=O)N(c2ccc(C)cc2)C1c1ccc(C)cc1 (stereo not shown) [Compound 10, 4-Acetyl-3-hydroxy-5-(4-methylphenyl)-1-(4-methylphenyl)-1,5-dihydro-2H-pyrrol-2-one]
- displacement at 1 μM (%) (human CCR2 [2]): 36% (42, 31)

Compound: CC(=O)C1=C(O)C(=O)N(c2ccc(C)cc2)C1c1cccc(C)c1 (stereo not shown) [Compound 14, 4-Acetyl-3-hydroxy-5-(3-methylphenyl)-1-(4-methylphenyl)-1,5-dihydro-2H-pyrrol-2-one]
- displacement at 1 μM (%) (human CCR2 [2]): 11% (14, 8)

Compound: CCC(=O)C1=C(O)C(=O)N(c2ccc(C)cc2)C1C1CCCCC1 (stereo not shown) [Compound 18, 5-Cyclohexyl-3-hydroxy-4-propionyl-1-(4-methylphenyl)-1,5-dihydro-2H-pyrrol-2-one]
- pKi ± SEM (human CCR1 [1]; [6]): 7.52 ± 0.01

Compound: CCOC(=O)C1=C(O)C(=O)N(c2ccc(C)cc2)C1C1CCCCC1 (stereo not shown) [Compound 24, Ethyl 2-Cyclohexyl-4-hydroxy-5-oxo-1-(4-methylphenyl)-2,5-dihydro-1H-pyrrole-3-carboxylate]
- displacement at 1 μM (%) (human CCR2 [2]): 31% (36, 26)

Compound: CC(=O)C1=C(O)C(=O)N(c2ccc(Cl)cc2)C1C1CCCCC1 (stereo not shown) [Compound 30, 4-Acetyl-1-(4-chlorophenyl)-5-cyclohexyl-3-hydroxy-1,5-dihydro-2H-pyrrol-2-one]
- Ki (human CCR2 [2]): ~20 nM
- pKi ± SEM (human CCR2 [2]): 7.73 ± 0.08

Compound: CC(=O)C1=C(O)C(=O)N(c2ccc(C)c(C)c2)C1C1CCCCC1 (stereo not shown) [Compound 40, 4-Acetyl-5-cyclohexyl-1-(3,4-dimethylphenyl)-3-hydroxy-1,5-dihydro-2H-pyrrol-2-one]
- pKi ± SEM (human CCR1 [1]; [6]): 7.37 ± 0.03
- pKi ± SEM (human CCR2 [2]): 7.75 ± 0.02

Compound: CC(=O)C1=C(O)C(=O)N(c2ccc(Cl)c(C)c2)C1C1CCCCC1 (stereo not shown) [Compound 41, 4-Acetyl-1-(4-chloro-3-methylphenyl)-5-cyclohexyl-3-hydroxy-1,5-dihydro-2H-pyrrol-2-one]
- Hill slope, CCR1 (human CCR1 [3]): –0.72 ± 0.08
- Hill slope, CCR2 (human CCR2 [4]): –0.88 ± 0.13
- fold higher potency as inverse agonist than as antagonist (human CCR1 [5]): ~10 fold

Compound: O=C(C1=C(O)C(=O)N(c2ccc(Br)cc2F)C1c1cccc(Br)c1)C1CC1 (stereo not shown) [Compound 45, 1-(4-Bromo-2-fluorophenyl)-5-(3-bromophenyl)-4-(cyclopropanecarbonyl)-3-hydroxy-1,5-dihydro-2H-pyrrol-2-one]
- Hill slope, CCR1 (human CCR1 [3]): –0.93 ± 0.01
- Hill slope, CCR2 (human CCR2 [4]): –1.20 ± 0.08
- fold difference between functional and binding assays (human CCR1 [5]): more than 130 fold

Compound: CC(=O)C1=C(O)C(=O)N(c2ccc(Br)cc2F)C1c1cccc(Br)c1 (stereo not shown) [Compound 46, 4-Acetyl-1-(4-bromo-2-fluorophenyl)-5-(3-bromophenyl)-3-hydroxy-1,5-dihydro-2H-pyrrol-2-one]
- pKi ± SEM (human CCR1 [1]; [6]): 7.19 ± 0.02

Compound: CCL3: chemokine ligand activating CCR1, purchased from PeproTech
- pEC50, stimulation of [35S]GTPγS binding (human CCR1 [3]; U2OS-CCR1): 8.9 ± 0.06
- EC50 (human CCR1 [3]; read-out: potency, stimulation of [35S]GTPγS binding, U2OS-CCR1): 1.3 nM
